Laboratory results reported in patent US9113629B2, “4-amino-6-(4-substituted-phenyl)-picolinates and 6-amino-2-(4-substituted-phenyl)-pyrimidine-4-carboxylates and their use as herbicides” (DOW AGROSCIENCES LLC, priority 2013, dated 2015).
Like-named read-outs stand apart in the source and are kept apart here.

Tests used:
[1] = test system: Key Broadleaf Weed and Crop Species; assay: Post-emergent Test II herbicidal activity (Table 5); assay type: in vivo; conditions: post-emergence, 336 h, 14 days after application; for pest or weed control at 70 g/ha: application rate 70 g ai/ha; for pest or weed control at 140 g/ha: application rate 140 g ai/ha
How it was run: (§1)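 Visual injury ratings (0 = no injury, 100 = complete kill) were taken 14 d after treatment, relative to untreated plants. Seedlings at the first–second true leaf stage received overhead spray at 187 L/ha; the highest rate was serially diluted to ½×, ¼×, ⅛× and 1/16×.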

[2] = test system: Key Grass and Sedge Weeds as well as Grass Crops; assay: Post-emergent Test II herbicidal activity (Table 6); assay type: in vivo; conditions: post-emergence, 336 h; for pest or weed control at 70 g/ha: 70 g ai/ha; for pest or weed control at 140 g/ha: 140 g ai/ha
How it was run: as §1

[3] = ABUTH: velvetleaf (Abutilon theophrasti), read-out: Visual Growth Reduction (%) 14 Days After Application, ABUTH
[4] = AMARE: redroot pigweed (Amaranthus retroflexus), read-out: Visual Growth Reduction (%) 14 Days After Application, AMARE
[5] = BRSNN: oilseed-rape, canola (Brassica napus), read-out: Visual Growth Reduction (%) 14 Days After Application, BRSNN
[6] = CHEAL: lambsquarters (Chenopodium album), read-out: Visual Growth Reduction (%) 14 Days After Application, CHEAL
[7] = EPHHL: wild poinsettia (Euphorbia heterophylla), read-out: Visual Growth Reduction (%) 14 Days After Application, EPHHL
[8] = HELAN: sunflower (Helianthus annuus), read-out: Visual Growth Reduction (%) 14 Days After Application, HELAN
[9] = VIOTR: wild pansy (Viola tricolor), read-out: Visual Growth Reduction (%) 14 Days After Application, VIOTR
[10] = CYPES: yellow nutsedge (Cyperus esculentus), read-out: Visual Growth Reduction (%) 14 Days After Application, CYPES
[11] = DIGSA: crabgrass (Digitaria sanguinalis), read-out: Visual Growth Reduction (%) 14 Days After Application, DIGSA
[12] = ECHCG: barnyardgrass (Echinochloa crus-galli), read-out: Visual Growth Reduction (%) 14 Days After Application, ECHCG
[13] = ORYSA: rice (Oryza sativa), crop, read-out: Visual Growth Reduction (%) 14 Days After Application, ORYSA
[14] = SETFA: giant foxtail (Setaria faberi), read-out: Visual Growth Reduction (%) 14 Days After Application, SETFA
[15] = SORVU: grain sorghum (Sorghum vulgare), read-out: Visual Growth Reduction (%) 14 Days After Application, SORVU
[16] = TRZSS (wheat, Triticum aestivum), crop, read-out: Visual Growth Reduction (%) 14 Days After Application, TRZSS
[17] = ZEAMX: maize, corn (Zea mays), crop, read-out: Visual Growth Reduction (%) 14 Days After Application, ZEAMX

melting point: 159 °C (dec.)
SMILES: Cc1ccc(-c2nc(C(=O)O)c(Cl)c(N)c2F)c(F)c1F [Compound 210]
pest or weed control at 70 g/ha [1, 3]: 85 to 94%
pest or weed control at 140 g/ha [1, 3]: 95 to 100%
pest or weed control at 70 g/ha [1, 4]: 95 to 100%
pest or weed control at 140 g/ha [1, 4]: 95 to 100%
pest or weed control at 70 g/ha [1, 5]: 75 to 84%
pest or weed control at 140 g/ha [1, 5]: 75 to 84%
pest or weed control at 70 g/ha [1, 6]: 95 to 100%
pest or weed control at 140 g/ha [1, 6]: 95 to 100%
pest or weed control at 70 g/ha [1, 7]: 95 to 100%
pest or weed control at 140 g/ha [1, 7]: 95 to 100%
pest or weed control at 70 g/ha [1, 8]: 95 to 100%
pest or weed control at 140 g/ha [1, 8]: 95 to 100%
pest or weed control at 70 g/ha [1, 9]: 0 to 29%
pest or weed control at 140 g/ha [1, 9]: 0 to 29%
pest or weed control at 70 g/ha [2, 10]: 0 to 29%
pest or weed control at 140 g/ha [2, 10]: 0 to 29%
pest or weed control at 70 g/ha [2, 11]: 0 to 29%
pest or weed control at 140 g/ha [2, 11]: 0 to 29%
pest or weed control at 70 g/ha [2, 12]: 60 to 74%
pest or weed control at 140 g/ha [2, 12]: 75 to 84%
pest or weed control at 70 g/ha [2, 13]: 0 to 29%
pest or weed control at 140 g/ha [2, 13]: 30 to 44%
pest or weed control at 70 g/ha [2, 14]: 75 to 84%
pest or weed control at 140 g/ha [2, 14]: 85 to 94%
pest or weed control at 70 g/ha [2, 15]: 0 to 29%
pest or weed control at 140 g/ha [2, 15]: 0 to 29%
pest or weed control at 70 g/ha [2, 16]: 0 to 29%
pest or weed control at 140 g/ha [2, 16]: 0 to 29%
pest or weed control at 70 g/ha [2, 17]: 0 to 29%
pest or weed control at 140 g/ha [2, 17]: 45 to 59%
